Data set [1] can be described thus: Half life in Pseudomonas aeruginosa infected immunocompromized SKH1 mouse skin at 50 mg/kg, sc.
For data set [2], the system named is Staphylococcus aureus. Description: Antimicrobial activity against methicillin-resistant Staphylococcus aureus OC 8525 infected immunocompetent SKH1 mouse assessed as lesion volume at 100 mg/kg/day, sc measured after 48 hrs postinfection (reference value: 1535 mm3). As to conditions: route subcutaneous.

The structures appear in SMILES notation.

Drawing on ChEMBL document CHEMBL1212762, “In vivo activity of ceftobiprole in murine skin infections due to Staphylococcus aureus and Pseudomonas aeruginosa” (Antimicrob Agents Chemother, 2010), this text covers half-life and Activity for one molecule.

With `Nc1nc(/C(=N/O)C(=O)N[C@@H]2C(=O)N3C(C(=O)O)=C(/C=C4\CCN([C@@H]5CCNC5)C4=O)CS[C@H]23)ns1` [CEFTOBIPROLE], the half-life (in general, how long it takes for the measured level to halve) in data set [1] was determined as 1.27 h. For the same molecule, the Activity in data set [2] is 484 mm3.
